Details: Liquid, Frequency=8 MHz, Pulse-echo method

C[Si]1(C)O[Si](C)(C)O[Si](C)(C)O[Si](C)(C)O1 [octamethylcyclotetrasiloxane]
Details | speed of sound [m/s]
299.67 K, 14920 kPa | 1006.8
299.79 K, 130 kPa | 911.09
299.8 K, 520 kPa | 913.77
299.81 K, 980 kPa | 916.96
299.81 K, 1500 kPa | 920.51
299.82 K, 1980 kPa | 923.9
299.83 K, 3440 kPa | 933.79
299.85 K, 6010 kPa | 950.89
300.15 K, 10240 kPa | 978.63
349.96 K, 26230 kPa | 939.02
349.98 K, 14970 kPa | 866.97
350 K, 10200 kPa | 832.31
350.03 K, 6210 kPa | 800.86
350.04 K, 1960 kPa | 764.8
350.04 K, 3530 kPa | 778.49
350.05 K, 960 kPa | 755.62
350.05 K, 1480 kPa | 760.43
350.06 K, 530 kPa | 751.64
350.07 K, 120 kPa | 747.75
350.35 K, 22660 kPa | 915.86
399.62 K, 19680 kPa | 784.97
399.63 K, 15100 kPa | 749.46
399.64 K, 6070 kPa | 667.98
399.64 K, 10120 kPa | 706.83
399.68 K, 3610 kPa | 641.86
399.69 K, 19290 kPa | 782.02
399.7 K, 510 kPa | 605.91
399.7 K, 1030 kPa | 612.25
399.7 K, 1460 kPa | 617.43
399.7 K, 2040 kPa | 624.18
399.71 K, 120 kPa | 600.99
449.63 K, 960 kPa | 475.36
449.64 K, 130 kPa | 461.18
449.64 K, 500 kPa | 467.67
449.69 K, 1960 kPa | 491.86
449.7 K, 1490 kPa | 484.22
449.77 K, 3600 kPa | 516.36
449.87 K, 5900 kPa | 547.45
450 K, 10040 kPa | 596.17
450.19 K, 15080 kPa | 646.97
450.23 K, 16420 kPa | 659.13
499.88 K, 3480 kPa | 398.42
499.88 K, 6030 kPa | 444.06
499.91 K, 2030 kPa | 367.4
499.92 K, 330 kPa | 321.35
499.92 K, 1490 kPa | 354.75
499.93 K, 11150 kPa | 515.95
499.94 K, 520 kPa | 329.04
500 K, 10650 kPa | 509.56
549.54 K, 5510 kPa | 338.9
549.55 K, 5070 kPa | 329.01
549.56 K, 4550 kPa | 317.1
549.61 K, 3880 kPa | 300.55
549.97 K, 6640 kPa | 364.29

Source: the NIST ThermoML archive (doi:10.1021/acs.jced.6b00261)
